# Assay results: patent publication US7959907B2, “Method of treating cancer by combination therapy using TNF and alpha-galactosylceramide” (VIB VZW, priority 2007, dated 2011)
# Assays:
# cancer = details: clinical studies; cited from earlier work
# B16B16 melanoma = experiment: Tumour experiment: subcutaneously growing B16B16 melanoma in C57BL/6 mice, tumor size index; type: in vivo
# Experimental: Female C57BL/6J@RJ mice were purchased from Janvier (Le Genest-Saint-Isle, France). The animals were housed in 14-10 hours light/dark cycles in a temperature-controlled, air-conditioned room, and received food and water ad libitum. The mice were used for the tumour experiment at the age of 8-12 weeks.
# The melanin-positive melanoma B16B16 cells (Hart et al., 1979) were cultured in RPMI 1640 (Invitrogen) supplemented with 10% FCS, 50 IU/ml penicillin G, 50 μg/ml streptomycin sulphate, 2 mM L-glutamine and 0.4 mM Na-pyruvate. For tumor inoculation cells were detached from the culture flask by a short EDTA treatment, washed three times in endotoxin-free sterile PBS (Sigma), and resuspended in PBS at 6×10^6 cells/ml.
# On day 0, the mice were inoculated with 6×10^5 cells subcutaneously in the back just in front of the hind limb. Treatment was started when the tumor size index (TSI), i.e., the product of the largest perpendicular diameters in cm, reached 0.5 (day 13). Treatment with hTNF (30 μg/injection) or low dose mTNF (0.7 μg/injection) was given daily for 9 or 10 consecutive days via paralesional injection (subcutaneous injection near the site of the tumor, but outside the nodule). Alpha-GalCer (1-2 μg/injection) was injected intraperitoneally. […] TSI and body weight were measured every day prior to injection and every two or three days when treatment was finished.
structure (smiles),measurement,setting,value
"CCCCCCCCCCCCCCCCCCCCCCCCCC(=O)N[C@@H](CO[C@H]1O[C@H](CO)[C@H](O)[C@H](O)[C@H]1O)[C@H](O)[C@H](O)CCCCCCCCCCCCCC [alpha-GalCer, (2S 3S, 4R)-1-O-(alfa-D-galactopyranosyl)-N-hexacosanoyl-2-amino-1,3,4-octadecanetriol]",clinical anti-tumour effects,cancer,no clinical anti-tumour effects were recorded
same,effect on tumour growth,"B16B16 melanoma; larger scale experiment, n=7, alpha-GalCer 1 μg/mouse pre-treatment, hTNF 30 μg/injection, low dose mTNF 0.7 μg/injection",small inhibiting effect
same,effect on tumor growth,"B16B16 melanoma; pilot experiment, alpha-GalCer 2 μg/mouse i.p., hTNF 30 μg/injection paralesional daily, single agents alone",no effect on tumor growth
